In patent publication US10034886B2, “GLP-1 receptor modulators” (Celgene International II SÀRL, priority 2014, dated 2018):

These compounds were tested against T1, GLP-1R (Homo sapiens, UniProt P43220) (assay: EC20 GLP-1(9-36) PAM cAMP assay: dose response of compound in the presence of fixed concentration of GLP-1(9-36)). Details: GLP-1R CRE-bla CHO-K1 cells, compound dose response with fixed concentration of GLP-1(9-36), read-out: EC20 GLP-1(9-36) PAM EC50.
T1 construct: host or cells: GLP-1R CRE-bla CHO-K1 cells
T1 sequence (P43220 24-463): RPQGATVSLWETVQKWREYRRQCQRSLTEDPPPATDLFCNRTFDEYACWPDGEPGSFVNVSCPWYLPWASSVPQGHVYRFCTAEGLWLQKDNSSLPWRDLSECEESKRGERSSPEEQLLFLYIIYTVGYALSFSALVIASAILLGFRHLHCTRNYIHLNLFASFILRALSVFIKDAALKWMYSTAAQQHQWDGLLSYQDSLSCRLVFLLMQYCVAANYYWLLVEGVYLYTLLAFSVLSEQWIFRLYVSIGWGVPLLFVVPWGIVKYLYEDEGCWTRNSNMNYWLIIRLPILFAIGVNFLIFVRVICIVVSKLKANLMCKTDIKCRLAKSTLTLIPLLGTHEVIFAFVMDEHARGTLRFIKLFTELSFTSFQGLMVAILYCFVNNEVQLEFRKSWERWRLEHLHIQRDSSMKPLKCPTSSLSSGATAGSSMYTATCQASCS
T1 sequence (P01275 100-127 partner limits assumed): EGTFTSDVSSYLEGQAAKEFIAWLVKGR
Assay type: cell-based
Method in brief: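 GLP-1R CRE-bla CHO-K1 cells treated 30 min at 37 °C with 12-point compound dose response plus fixed EC20 GLP-1(9-36), with IBMX, in HBSS/HEPES/0.1% BSA pH 7.4. Total cAMP measured by luminescent detection against standard curve; EC50 and Emax from non-linear regression.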

Compound	EC50 [µM]
CCC[C@H]1CC[C@H](C2CCN(c3cnc(-c4ccc(C[C@H](NC(=O)c5ccc(C(C)(C)C)s5)C(=O)N5C6CCC5[C@@H](C(=O)O)C6)cc4)nc3)CC2)CC1 (stereo partly shown) [Compound 1448]	5 to 10
CCC[C@H]1CC[C@H](C2CCN(c3cnc(-c4ccc(C[C@H](NC(=O)c5ccc(C(C)(C)C)s5)C(=O)N[C@@H](C(=O)O)C(C)C)cc4)nc3)CC2)CC1 [Compound 1449]	< 0.8
CCC[C@H]1CC[C@H](C2CCN(c3cnc(-c4ccc(C[C@H](NC(=O)c5ccc(C(C)(C)C)s5)C(=O)N5CC(F)(C(=O)O)C5)cc4)nc3)CC2)CC1 [Compound 1451]	0.8 to 2.5
CCC[C@H]1CC[C@H](C2CCN(c3cnc(-c4ccc(C[C@H](NC(=O)c5ccc(C(C)(C)C)s5)C(=O)N5CC(OC)(C(=O)O)C5)cc4)nc3)CC2)CC1 [Compound 1452]	< 0.8
CCC[C@H]1CC[C@H](C2CCN(c3cnc(-c4ccc(C[C@H](NC(=O)c5ccc(C(C)(C)C)s5)C(=O)NC(C(=O)O)c5ccco5)cc4)nc3)CC2)CC1 (stereo partly shown) [Compound 1454]	< 0.8
CCC[C@H]1CC[C@H](C2CCN(c3cnc(-c4ccc(C[C@H](NC(=O)c5ccc(C(C)(C)C)s5)C(=O)N5CCC[C@H](C(=O)O)C5)cc4)nc3)CC2)CC1 [Compound 1456]	< 0.8
CCC[C@H]1CC[C@H](C2CCN(c3cnc(-c4ccc(C[C@H](NC(=O)c5ccc(C(C)(C)C)s5)C(=O)N5CCC(C(=O)O)CC5)cc4)nc3)CC2)CC1 [Compound 1457]	< 0.8
CCC[C@H]1CC[C@H](C2CCN(c3cnc(-c4ccc(C[C@H](NC(=O)c5ccc(C(C)(C)C)s5)C(=O)NC(CCCOC)C(=O)O)cc4)nc3)CC2)CC1 (stereo partly shown) [Compound 1458]	< 0.8
CCC[C@H]1CC[C@H](C2CCN(c3cnc(-c4ccc(C[C@H](NC(=O)c5ccc(C(C)(C)C)s5)C(=O)NCC(=O)O)cc4)nc3)CC2)CC1 [Compound 1461]	< 0.8
CCC[C@H]1CC[C@H](C2CCN(c3cnc(-c4ccc(C[C@H](NC(=O)c5ccc(C(C)(C)C)s5)C(=O)N[C@H](CC(C)C)C(=O)O)cc4)nc3)CC2)CC1 [Compound 1462]	0.8 to 2.5
CCC[C@H]1CC[C@H](C2CCN(c3cnc(-c4ccc(C[C@H](NC(=O)c5ccc(C(C)(C)C)s5)C(=O)N[C@@H](CC(=O)O)C(=O)O)cc4)nc3)CC2)CC1 [Compound 1463]	< 0.8
CCC[C@H]1CC[C@H](C2CCN(c3cnc(-c4ccc(C[C@H](NC(=O)c5ccc(C(C)(C)C)s5)C(=O)N[C@H](C)CC(=O)O)cc4)nc3)CC2)CC1 [Compound 1468]	< 0.8
CCC[C@H]1CC[C@H](C2CCN(c3cnc(-c4ccc(C[C@H](NC(=O)c5ccc(C(C)(C)C)s5)C(=O)N[C@H](C(=O)O)[C@@H](C)O)cc4)nc3)CC2)CC1 [Compound 1469]	< 0.8
CCC[C@H]1CC[C@H](C2CCN(c3cnc(-c4ccc(C[C@H](NC(=O)c5ccc(C(C)(C)C)s5)C(=O)NC5(C(=O)O)CCCC5)cc4)nc3)CC2)CC1 [Compound 1470]	< 0.8
CCC[C@H]1CC[C@H](C2CCN(c3cnc(-c4ccc(C[C@H](NC(=O)c5ccc(C(C)(C)C)s5)C(=O)NC(CCN)C(=O)O)cc4)nc3)CC2)CC1 (stereo partly shown) [Compound 1471]	< 0.8
CCC[C@H]1CC[C@H](C2CCN(c3cnc(-c4ccc(C[C@H](NC(=O)c5ccc(C(C)(C)C)s5)C(=O)N[C@@H](CN)C(=O)O)cc4)nc3)CC2)CC1 [Compound 1472]	< 0.8
CCC[C@H]1CC[C@H](C2CCN(c3cnc(-c4ccc(C[C@H](NC(=O)c5ccc(C(C)(C)C)s5)C(=O)N[C@H](CN)C(=O)O)cc4)nc3)CC2)CC1 [Compound 1473]	< 0.8
CCc1ccc(C2CCN(c3cnc(-c4ccc(C[C@H](NC(=O)c5ccc(C(C)(C)C)s5)C(=O)N5CC(C(=O)O)C5)cc4)nc3)CC2)cc1 [Compound 1474]	< 0.8
Cc1cccc(C2CCN(c3cnc(-c4ccc(C[C@H](NC(=O)c5ccc(C(C)(C)C)s5)C(=O)N5CC(C(=O)O)C5)cc4)nc3)CC2)c1 [Compound 1476]	< 0.8
CC(C)(C)c1ccc(C(=O)N[C@@H](Cc2ccc(-c3ncc(N4CCC(c5ccc(Cl)cc5)CC4)cn3)cc2)C(=O)N2CC(C(=O)O)C2)s1 [Compound 1478]	0.8 to 2.5
CC(C)(C)c1ccc(C(=O)N[C@@H](Cc2ccc(-c3ncc(N4CCC(c5ccccc5Cl)CC4)cn3)cc2)C(=O)N2CC(C(=O)O)C2)s1 [Compound 1480]	0.8 to 2.5
CC(C)(C)c1ccc(C(=O)NC(Cc2ccc(-c3ncc(N4CCC(c5ccc(Br)cc5)CC4)cn3)cc2)C(=O)N2CC(C(=O)O)C2)s1 (stereo not shown) [Compound 1487]	0.8 to 2.5
CC(C)(C)c1ccc(C(=O)N[C@@H](Cc2ccc(-c3ncc(N4CCC(c5cccc(Br)c5)CC4)cn3)cc2)C(=O)N2CC(C(=O)O)C2)s1 [Compound 1488]	0.8 to 2.5
COc1ccc(C2CCN(c3cnc(-c4ccc(CC(NC(=O)c5ccc(C(C)(C)C)s5)C(=O)N5CC(C(=O)O)C5)cc4)nc3)CC2)cc1 (stereo not shown) [Compound 1489]	< 0.8
CCOc1ccc(C2CCN(c3cnc(-c4ccc(CC(NC(=O)c5ccc(C(C)(C)C)s5)C(=O)N5CC(C(=O)O)C5)cc4)nc3)CC2)cc1 (stereo not shown) [Compound 1490]	0.8 to 2.5
COc1ccccc1C1CCN(c2cnc(-c3ccc(C[C@H](NC(=O)c4ccc(C(C)(C)C)s4)C(=O)N4CC(C(=O)O)C4)cc3)nc2)CC1 [Compound 1492]	0.8 to 2.5
CC(C)(C)c1ccc(C2CCN(c3cnc(-c4ccc(C[C@H](NC(=O)c5ccc(C(C)(C)C)s5)C(=O)N5CC(C(=O)O)C5)cc4)nc3)CC2)cc1 [Compound 1493]	< 0.8
COCCc1ccc(C2CCN(c3cnc(-c4ccc(C[C@H](NC(=O)c5ccc(C(C)(C)C)s5)C(=O)N5CC(C(=O)O)C5)cc4)nc3)CC2)cc1 [Compound 1495]	0.8 to 2.5
CCCC1CCC(C2CCN(c3cnc(-c4ccc(C[C@H](NC(=O)c5ccc(C(C)(C)C)s5)C(=O)N5CC(C(=O)O)C5)cc4)nc3)C(=O)C2)CC1 (stereo partly shown) [Compound 1496]	0.8 to 2.5

Second part, the compound after the results:

EC50 [µM]	Compound
< 0.8	CCC[C@H]1CC[C@H](C2CCN(c3cnc(-c4ccc(C[C@H](NC(=O)c5ccc(C(C)(C)C)s5)C(=O)N5CC(C)(C(=O)O)C5)cc4)nc3)CC2)CC1 [Compound 1450]
< 0.8	CCC[C@H]1CC[C@H](C2CCN(c3cnc(-c4ccc(C[C@H](NC(=O)c5ccc(C(C)(C)C)s5)C(=O)NC5(C(=O)O)CC5)cc4)nc3)CC2)CC1 [Compound 1453]
< 0.8	CCC[C@H]1CC[C@H](C2CCN(c3cnc(-c4ccc(C[C@H](NC(=O)c5ccc(C(C)(C)C)s5)C(=O)N5CCCC[C@H]5C(=O)O)cc4)nc3)CC2)CC1 [Compound 1455]
< 0.8	CCC[C@H]1CC[C@H](C2CCN(c3cnc(-c4ccc(C[C@H](NC(=O)c5ccc(C(C)(C)C)s5)C(=O)NC(CN(C)C)C(=O)O)cc4)nc3)CC2)CC1 (stereo partly shown) [Compound 1459]
< 0.8	CCC[C@H]1CC[C@H](C2CCN(c3cnc(-c4ccc(C[C@H](NC(=O)c5ccc(C(C)(C)C)s5)C(=O)N[C@H](CC(N)=O)C(=O)O)cc4)nc3)CC2)CC1 [Compound 1460]
< 0.8	C=C(N[C@H](Cc1ccccc1)C(=O)O)[C@H](Cc1ccc(-c2ncc(N3CCC([C@H]4CC[C@H](CCC)CC4)CC3)cn2)cc1)NC(=O)c1ccc(C(C)(C)C)s1 [Compound 1464]
< 0.8	CCC[C@H]1CC[C@H](C2CCN(c3cnc(-c4ccc(C[C@H](NC(=O)c5ccc(C(C)(C)C)s5)C(=O)N[C@@H](CCCNC(=N)N)C(=O)O)cc4)nc3)CC2)CC1 [Compound 1465]
< 0.8	CCC[C@H]1CC[C@H](C2CCN(c3cnc(-c4ccc(C[C@H](NC(=O)c5ccc(C(C)(C)C)s5)C(=O)NC(C)(C)C(=O)O)cc4)nc3)CC2)CC1 [Compound 1466]
< 0.8	CCC[C@H]1CC[C@H](C2CCN(c3cnc(-c4ccc(C[C@H](NC(=O)c5ccc(C(C)(C)C)s5)C(=O)N[C@@H](CO)C(=O)O)cc4)nc3)CC2)CC1 [Compound 1467]
< 0.8	Cc1ccccc1C1CCN(c2cnc(-c3ccc(C[C@H](NC(=O)c4ccc(C(C)(C)C)s4)C(=O)N4CC(C(=O)O)C4)cc3)nc2)CC1 [Compound 1475]
< 0.8	COc1cccc(C2CCN(c3cnc(-c4ccc(C[C@H](NC(=O)c5ccc(C(C)(C)C)s5)C(=O)N5CC(C(=O)O)C5)cc4)nc3)CC2)c1 [Compound 1477]
0.8 to 2.5	CC(C)(C)c1ccc(C(=O)N[C@@H](Cc2ccc(-c3ncc(N4CCC(c5cccc(Cl)c5)CC4)cn3)cc2)C(=O)N2CC(C(=O)O)C2)s1 [Compound 1479]
< 0.8	CC(C)(C)c1ccc(C(=O)N[C@@H](Cc2ccc(-c3ncc(N4CCC(c5ccc(C(F)(F)F)cc5)CC4)cn3)cc2)C(=O)N2CC(C(=O)O)C2)s1 [Compound 1481]
0.8 to 2.5	CC(C)(C)c1ccc(C(=O)N[C@@H](Cc2ccc(-c3ncc(N4CCC(c5cccc(C(F)(F)F)c5)CC4)cn3)cc2)C(=O)N2CC(C(=O)O)C2)s1 [Compound 1482]
0.8 to 2.5	COc1ccc(C2CCN(c3cnc(-c4ccc(CC(NC(=O)c5ccc(C(C)(C)C)s5)C(=O)N5CC(C(=O)O)C5)cc4)nc3)CC2)c(C)c1 (stereo not shown) [Compound 1483]
0.8 to 2.5	CC(C)(C)c1ccc(C(=O)NC(Cc2ccc(-c3ncc(N4CCC(c5cccc(F)c5)CC4)cn3)cc2)C(=O)N2CC(C(=O)O)C2)s1 (stereo not shown) [Compound 1484]
< 0.8	CN(CCC(C)(O)c1cccc(OC(F)(F)F)c1)c1cnc(-c2ccc(CC(NC(=O)c3ccc(C(C)(C)C)s3)C(=O)N3CC(C(=O)O)C3)cc2)nc1 (stereo not shown) [Compound 1485]
0.8 to 2.5	CN(C)c1ccc(C2CCN(c3cnc(-c4ccc(CC(NC(=O)c5ccc(C(C)(C)C)s5)C(=O)N5CC(C(=O)O)C5)cc4)nc3)CC2)cc1 (stereo not shown) [Compound 1486]
0.8 to 2.5	CC(C)(C)c1ccc(C(=O)NC(Cc2ccc(-c3ncc(N4CCC(c5ccccc5F)CC4)cn3)cc2)C(=O)N2CC(C(=O)O)C2)s1 (stereo not shown) [Compound 1491]
0.8 to 2.5	CCCOc1ccc(C2CCN(c3cnc(-c4ccc(C[C@H](NC(=O)c5ccc(C(C)(C)C)s5)C(=O)N5CC(C(=O)O)C5)cc4)nc3)CC2)cc1 [Compound 1494]
